Experimental data taken from PubChem BioAssay AID206 (DTP/NCI, 2004).
Values joined by “and” are separate entries in the source; they are usually repeats but may differ in a detail not shown here. Equal values may be shown once. Results filed as inconclusive are left out.

System: nude mice, HT29 intrarenal xenograft, tumor weight T/C
Assay: NCI In Vivo Anticancer Drug Screen. Data for tumor model HT29;CX-1 Human Adenocarcinoma (MER+) (intrarenal inoculation) in NU/NU Swiss (nude) mice
Settings: endpoint: mean tumor weight change, higher = larger tumour
Experimental: The antitumor activity of compounds was measured in mice bearing transplantable tumors. Survival or tumor size were measured and the results are expressed as the measurement made in the treated group (T) divided by the measurement made in the vehicle treated control group (C). The tumor model used in this assay is HT29;CX-1 Human Adenocarcinoma (MER+) (intrarenal inoculation) in NU/NU Swiss (nude) mice

[1] = dose: 300.0 mg/kg/injection, schedule: Q04DX004 (sc), vehicle: Klucel (hydroxypropylcellulose) (HPC)
[2] = dose: 600.0 mg/kg/injection, schedule: Q04DX004 (sc), vehicle: Klucel (hydroxypropylcellulose) (HPC)
[3] = dose: 1200.0 mg/kg/injection, schedule: Q04DX004 (sc), vehicle: Klucel (hydroxypropylcellulose) (HPC)
[4] = dose: 2400.0 mg/kg/injection, schedule: Q04DX004 (sc), vehicle: Klucel (hydroxypropylcellulose) (HPC)
[5] = dose: 150.0 mg/kg/injection, schedule: Q04DX004 (sc), vehicle: saline with Tween-80
[6] = dose: 600.0 mg/kg/injection, schedule: Q04DX004 (sc), vehicle: saline with Tween-80

## CSC1SCC2C(=O)N(C)C(C(C)C)C(=O)OCC(NC(=O)c3cnc4ccccc4n3)C(=O)NC(C)C(=O)N(C)C1C(=O)N(C)C(C(C)C)C(=O)OCC(NC(=O)c1cnc3ccccc3n1)C(=O)NC(C)C(=O)N2C (stereo unspecified)
dose: 30.0 micrograms/kg/injection, schedule: Q01DX010 (sc), vehicle: suspension in saline
  T/C: 88 % of control
dose: 60.0 micrograms/kg/injection, schedule: Q01DX010 (sc), vehicle: saline
  T/C: 49 % of control
dose: 120.0 micrograms/kg/injection, schedule: Q01DX010 (sc), vehicle: saline
  T/C: 35 % of control
dose: 240.0 micrograms/kg/injection, schedule: Q01DX010 (sc), vehicle: saline
  T/C: 12 % of control

## Cn1cc(C2NC(=O)c3ccccc3N2)c2ccccc21 (stereo unspecified)
[1]
  T/C: 97 % of control
[2]
  T/C: 116 % of control
[3]
  T/C: 60 % of control
[4]
  T/C: 94 % of control

## O=S(=O)(N=N/C=C1\C=CC=CN1O)c1cccs1
[5]
  T/C: 75 % of control

## COc1cc(Cc2nccc3cc(OC)c(OC)cc23)c(C(C)=O)c(OC)c1
dose: 40.0 mg/kg/injection, schedule: Q01DX010 (sc), vehicle: saline
  T/C: 35 % of control
dose: 80.0 mg/kg/injection, schedule: Q01DX010 (sc), vehicle: saline
  T/C: 50 % of control
dose: 160.0 mg/kg/injection, schedule: Q01DX010 (sc), vehicle: saline
  T/C: 19 % of control

## O=C(Nc1cccc(Cl)c1)ON1C(=O)C2C(C1=O)C1(Cl)C(Cl)C(Cl)C2(Cl)C1(Cl)Cl (stereo unspecified)
[5]
  T/C: 90 % of control
[6]
  T/C: 169 % of control
dose: 1200.0 mg/kg/injection, schedule: Q04DX004 (sc), vehicle: saline with Tween-80
  T/C: 89 % of control

## NC1(C(=O)O)CCCC1
dose: 12.5 mg/kg/injection, schedule: Q01DX010 (sc), vehicle: saline
  T/C: 49 % of control
dose: 200.0 mg/kg/injection, schedule: Q01DX010 (sc), vehicle: saline
  T/C: -20 % of control

## c1ccc(CN2CCOC2)cc1
dose: 25.0 mg/kg/injection, schedule: Q01DX010 (sc), vehicle: suspension in saline
  T/C: 100 % of control
dose: 50.0 mg/kg/injection, schedule: Q01DX010 (sc), vehicle: suspension in saline
  T/C: 106 % of control
dose: 100.0 mg/kg/injection, schedule: Q01DX010 (sc), vehicle: suspension in saline
  T/C: 102 % of control

## C[CH2][Sn]([CH2]C)([CH2]C(=O)OC)[CH2]C(=O)OC
dose: 12.5 mg/kg/injection, schedule: Q04DX004 (sc), vehicle: saline with Tween-80
  T/C: 79 % of control
dose: 25.0 mg/kg/injection, schedule: Q04DX004 (sc), vehicle: saline with Tween-80
  T/C: 83 % of control
dose: 50.0 mg/kg/injection, schedule: Q04DX004 (sc), vehicle: saline with Tween-80
  T/C: 79 % of control

## CCC[CH2][Sn]1([CH2]CCC)[O]C2C(CO)OC(n3ccc(N)nc3=O)C2[O]1 (stereo unspecified)
dose: 3.0 mg/kg/injection, schedule: Q04DX004 (sc), vehicle: Klucel (hydroxypropylcellulose) (HPC)
  T/C: 27 % of control
dose: 6.0 mg/kg/injection, schedule: Q04DX004 (sc), vehicle: Klucel (hydroxypropylcellulose) (HPC)
  T/C: 85 % of control
dose: 12.0 mg/kg/injection, schedule: Q04DX004 (sc), vehicle: Klucel (hydroxypropylcellulose) (HPC)
  T/C: 109 % of control
dose: 24.0 mg/kg/injection, schedule: Q04DX004 (sc), vehicle: Klucel (hydroxypropylcellulose) (HPC)
  T/C: 76 % of control

## CSc1ncc2ncn(C3OC(CO)C(O)C3O)c2n1 (stereo unspecified)
dose: 75.0 mg/kg/injection, schedule: Q04DX004 (sc), vehicle: Klucel (hydroxypropylcellulose) (HPC)
  T/C: 95 % of control
dose: 150.0 mg/kg/injection, schedule: Q04DX004 (sc), vehicle: Klucel (hydroxypropylcellulose) (HPC)
  T/C: 90 % of control
[1]
  T/C: 185 % of control
[2]
  T/C: 182 % of control

## CC1=C(/C=C/C(C)=C/C=C/C(C)=C/C=O)C(C)(C)CCC1
[5]
  T/C: 61 % of control
dose: 300.0 mg/kg/injection, schedule: Q04DX004 (sc), vehicle: saline with Tween-80
  T/C: 62 % of control
[6]
  T/C: 67 % of control

## CC(=O)c1c(O)c(C)c(O)c2c1OC1=CC(=O)C(C(C)=O)C(=O)C12C (stereo unspecified)
dose: 300.0 mg/kg/injection, schedule: Q04DX004 (sc), vehicle: sodium bicarbonate
  T/C: 104 % of control
dose: 600.0 mg/kg/injection, schedule: Q04DX004 (sc), vehicle: sodium bicarbonate
  T/C: 91 % of control
dose: 800.0 mg/kg/injection, schedule: Q01DX010 (sc), vehicle: sodium bicarbonate
  T/C: 3 % of control and 9 % of control

## CN(CO)c1nc(N(C)CO)nc(N(C)CO)n1
dose: 25.0 mg/kg/injection, schedule: Q01DX010 (sc), vehicle: saline
  T/C: 65 % of control and 81 % of control
dose: 100.0 mg/kg/injection, schedule: Q01DX010 (sc), vehicle: saline
  T/C: 17 % of control

## C(COCCOCC1CO1)OCCOCC1CO1 (stereo unspecified)
dose: 150.0 mg/kg/injection, schedule: Q04DX004 (sc), vehicle: saline
  T/C: 63 % of control
dose: 300.0 mg/kg/injection, schedule: Q04DX004 (sc), vehicle: saline
  T/C: 55 % of control
dose: 600.0 mg/kg/injection, schedule: Q04DX004 (sc), vehicle: saline
  T/C: 43 % of control

## CN(C)c1nc(N(C)C)nc(N(C)C)n1
dose: 15.0 mg/kg/injection, schedule: Q01DX010 (sc), vehicle: saline with Tween-80
  T/C: 90 % of control
dose: 30.0 mg/kg/injection, schedule: Q01DX010 (sc), vehicle: saline with Tween-80
  T/C: 81 % of control and 101 % of control and 222 % of control

## C#C[C@]1(O)CC[C@H]2[C@@H]3CCc4cc(O)ccc4[C@H]3CC[C@@]21C
[2]
  T/C: 91 % of control
[3]
  T/C: 83 % of control
[4]
  T/C: 80 % of control

## CO[C@H]1Nc2c(ccc(C)c2O)C(=O)N2C=C(/C=C/C(N)=O)C[C@@H]12
dose: 0.5 mg/kg/injection, schedule: Q04DX004 (sc), vehicle: saline + alcohol
  T/C: 98 % of control
dose: 1.0 mg/kg/injection, schedule: Q04DX004 (sc), vehicle: saline + alcohol
  T/C: 54 % of control

## CCCCC(=O)OCC(=O)[C@]1(O)Cc2c(O)c3c(c(O)c2[C@@H](OC2CC(NC(=O)C(F)(F)F)C(O)C(C)O2)C1)C(=O)c1c(OC)cccc1C3=O (stereo partly specified)
dose: 64.0 mg/kg/injection, schedule: Q01DX010 (sc), vehicle: distilled water + Tween-80
  T/C: 61 % of control
dose: 128.0 mg/kg/injection, schedule: Q01DX010 (sc), vehicle: distilled water + Tween-80
  T/C: 83 % of control
dose: 256.0 mg/kg/injection, schedule: Q01DX010 (sc), vehicle: distilled water + Tween-80
  T/C: 46 % of control

## CC1=C(/C=C/C(C)=C/C=C/C(C)=C/CO)C(C)(C)CCC1
dose: 100.0 mg/kg/injection, schedule: Q04DX004 (sc), vehicle: saline with Tween-80
  T/C: 82 % of control
dose: 200.0 mg/kg/injection, schedule: Q04DX004 (sc), vehicle: saline with Tween-80
  T/C: 94 % of control
dose: 400.0 mg/kg/injection, schedule: Q04DX004 (sc), vehicle: saline with Tween-80
  T/C: 96 % of control
dose: 800.0 mg/kg/injection, schedule: Q04DX004 (sc), vehicle: saline with Tween-80
  T/C: 121 % of control

## Nc1ncn(C2OC(CO)C(O)C2O)c(=O)n1 (stereo unspecified)
dose: 0.19 mg/kg/injection, schedule: Q01DX010 (sc), vehicle: saline
  T/C: 212 % of control
dose: 0.38 mg/kg/injection, schedule: Q01DX010 (sc), vehicle: saline
  T/C: 172 % of control
dose: 0.75 mg/kg/injection, schedule: Q01DX010 (sc), vehicle: saline
  T/C: 96 % of control
dose: 5.0 mg/kg/injection, schedule: Q04DX004 (sc), vehicle: saline
  T/C: 66 % of control
dose: 10.0 mg/kg/injection, schedule: Q04DX004 (sc), vehicle: saline
  T/C: 48 % of control and 49 % of control
dose: 100.0 mg/kg/injection, schedule: Q04DX004 (sc), vehicle: saline
  T/C: 62 % of control
dose: 200.0 mg/kg/injection, schedule: Q04DX004 (sc), vehicle: saline
  T/C: 85 % of control
dose: 200.0 mg/kg/injection, schedule: Q04DX004 (sc), vehicle: suspension in saline
  T/C: 98 % of control
dose: 300.0 mg/kg/injection, schedule: Q04DX004 (sc), vehicle: suspension in saline
  T/C: 24 % of control
dose: 400.0 mg/kg/injection, schedule: Q04DX004 (sc), vehicle: saline
  T/C: 38 % of control
dose: 600.0 mg/kg/injection, schedule: Q04DX004 (sc), vehicle: suspension in saline
  T/C: 79 % of control
dose: 800.0 mg/kg/injection, schedule: Q04DX004 (sc), vehicle: saline
  T/C: 7 % of control
dose: 800.0 mg/kg/injection, schedule: Q04DX004 (sc), vehicle: suspension in saline
  T/C: 29 % of control and 30 % of control
dose: 1200.0 mg/kg/injection, schedule: Q04DX004 (sc), vehicle: suspension in saline
  T/C: 7 % of control
dose: 1600.0 mg/kg/injection, schedule: Q04DX004 (sc), vehicle: suspension in saline
  T/C: 11 % of control
